System: rat model of hyperuricemia induced by adenine (100 mg/kg)+ethambutol (250 mg/kg)
Experiment: Rat model of hyperuricemia induced by adenine + ethambutol; serum UA, CREA, UREA
Assay type: in vivo
Description: 40 rats were randomly divided into 5 groups with 8 rats in each group. The groups were as follows: Blank Group (Vehicle, ig); Model Group (Vehicle, ig); Positive control group (Allopurinol, 10 mg/kg, ig); Compound 1 group (Sevelamer carbonate, 250 mg/kg, ig); Compound 2 group (PAA polymer, 50 mg/kg, ig). Except for Blank group, rats in other groups were modeled according to the chronic modeling method. The modeling method was as follows: rats were given Adenine (100 mg/kg)+Ethambutol (250 mg/kg) by gavage, once a day, for 21 days. Animals in blank group and model group were given equal volume of normal saline by gavage. Animals in positive control group were given 10 mg/kg Alloalcohol by gavage, once in the first week, once in the second week, once a day for 3 days before sampling in the third week. Animals in each group were given intragastric administration once a day for 14 consecutive days from the 8th day of modeling. Blood samples were taken at Day 21 after modeling, and serum samples were separated and stored at −80[…] for biochemical detection.
After 21 days of modeling (14 days of drug treatment), blood samples were taken and serum separation was performed to detect three renal functions (UA, CREA and UREA) (See Table 1 and FIGS. 1a to 1c). Compound 1 is Sevelamer carbonate and Compound 2 is a polyallylamine-based copolymer having a general structure of formula (4) as described herein.

[1] = after 21 days of modeling, adenine + ethambutol model
[2] = serum, after 21 days of modeling (14 days of administration), ig, Allopurinol 10 mg/kg, Compound 1 250 mg/kg, Compound 2 50 mg/kg

`Oc1ncnc2[nH]ncc12` [Allopurinol] was tested, and the “level of CREA compared with the model group (in words)” value [1] was “significantly reduced”, the “level of UA compared with the model group (in words)” value [1] was “significantly reduced” and the “level of UREA compared with the model group (in words)” value [1] was “significantly reduced”. For the same compound, the CREA [2] was 54.73 ± 4.75 ^ μmol/L, the UA [2] was 12.88 ± 6.01 µmol/L and the UREA [2] was 5.82 ± 1.10 mmol/L.
